The test system of the experiment is MV4-11, an acute myeloid leukemia cell line. Nature of the experiment: WST-8 cell viability assay (inhibition of cancer cell proliferation) in MV4-11. Format: cell-based. As to conditions: Homo sapiens, MV4-11 cells, 72 hours, WST-8 assay; for inhibition at 10 µM: compound at 10 μM; for pIC50: final concentration 0.02 to 100 μM. On the procedure: In order to confirm the inhibition of cancer cell proliferation of the compound, the WST-8 assay (Cyto X cell viability assay kit, LPS solution, Daejeon, Korea) was performed according to the manufacturer's protocol. MV4-11, an acute myeloid leukemia cell line, was inoculated into a 96-well plate at 3×10^3 per well. The cells were cultured for 24 hours, and treated with the compound at a concentration of 10 μM. After 72 hours, the culture medium was discarded and a chromatographic solution was added. Following a 1-hour incubation at 37° C., color development was observed, and the absorbance was measured at 480 nm using a Versamax microplate reader (Molecular Devices, CA, USA). In addition, in order to confirm the IC50 value of the compound in MV4-11, the cells were treated with the compound with the final concentration of 0.02 to 100 μM in the same manner as the experiment above.
(In general: Tetrazolium dyes change colour on reduction, which living cells bring about.)

Each structure is given as a SMILES string. pIC50: −log10 of the molar value. Where a name gives a salt, the structure may show the parent alone.

As usually defined, the inhibition is the relative decrease from the control value, in per cent. By pIC50 is commonly meant the negative decadic logarithm of the IC50, by convention in mol/L. In turn, `CCCCN1CCCC(Nc2cc(NC(=O)c3ccc(C(C)(C)C)cc3)ccc2C(N)=O)C1` [Example D-6, 4-(tert-butyl)-N-(3-((1-butylpiperidin-3-yl)amino)-4-carbamoylphenyl)benzamide] had an inhibition at 10 µM of 95.5% and a pIC50 of 5.35.

On to `CN(C)S(=O)(=O)N1CCCC(Nc2cc(NC(=O)c3ccc(C(C)(C)C)cc3)ccc2C(N)=O)C1` (stereo not shown) [Example A-3, 4-(tert-butyl)-N-(4-carbamoyl-3-((1-(N,N-dimethylsulfamoyl)piperidin-3-yl)amino)phenyl)benzamide], for which 10 µM produced 87.6% inhibition and the negative logarithm of the IC50 (pIC50) is 5.17.

For `COC(=O)c1ccc(NC(=O)c2ccc(C(C)(C)C)cc2)cc1NC1CCCN(Cc2ccccc2)C1` (stereo not shown) [Example E-1, methyl 2-((1-benzylpiperidin-3-yl)amino)-4-(4-(tert-butyl)benzamido)benzoate], 10 µM produced 70.1% inhibition and the pIC50 was 5.66.

In the case of `COc1cc([N+](=O)[O-])ccc1NC(=O)N1CCCC(Nc2cc(NC(=O)c3ccc(C(C)(C)C)cc3)ccc2C(N)=O)C1` (stereo not shown) [Example B-33, 3-((5-(4-(tert-butyl)benzamido)-2-carbamoylphenyl)amino)-N-(2-methoxy-4-nitrophenyl)piperidine-1-carboxamide], the inhibition at 10 µM came out at 80.5%.

`CC(C)(C)c1ccc(C(=O)Nc2ccc(C(N)=O)c(NC3CCCN(C(=O)c4ccccc4)C3)c2)cc1` (stereo not shown) [Example C-6, N-(3-((1-benzoylpiperidin-3-yl)amino)-4-carbamoylphenyl)-4-(tert-butyl)benzamide] had an inhibition at 10 µM of 97.1% and a negative-log IC50 (pIC50) of 5.35.

`COC(=O)c1ccc(NC(=O)c2ccc(C(C)(C)C)cc2)cc1NC1CCCN(C)C1` [Example D-7, methyl 4-(4-(tert-butyl)benzamido)-2-((1-methylpiperidin-3-yl)amino)benzoate] gave an inhibition at 10 µM of 100% and a pIC50 of 5.34.

`CC(C)(C)c1ccc(C(=O)Nc2ccc(C(N)=O)c(NC3CCNCC3)c2)cc1` [Example D-11, 4-(tert-butyl)-N-(4-carbamoyl-3-(piperidin-4-ylamino)phenyl)benzamide trifluoroacetate] had an inhibition at 10 µM of 70% and a negative logarithm of the IC50 (pIC50) of 5.77.

With `CC(C)(C)c1ccc(C(=O)Nc2ccc(C(N)=O)c(NC3CCCN(C(=O)NCc4cccc(F)c4)C3)c2)cc1` (stereo not shown) [Example B-15, 3-((5-(4-(tert-butyl)benzamido)-2-carbamoylphenyl)amino)-N-(3-fluorobenzyl)piperidine-1-carboxamide], the inhibition at 10 µM stood at 100% and the pIC50 was 5.32.

`CC(C)(C)c1ccc(C(=O)Nc2ccc(C(N)=O)c(NC3CCCNC3)c2)cc1` [Example D-10, 4-(tert-butyl)-N-(4-carbamoyl-3-(piperidin-3-ylamino)phenyl)benzamide trifluoroacetate]: testing at 10 µM gave an inhibition of 70% and the pIC50 was 5.70.

With `CC(C)(C)c1ccc(C(=O)Nc2ccc(C(N)=O)c(NC3CCCN(C(=O)Nc4ccc(I)cc4)C3)c2)cc1` (stereo not shown) [Example B-24, 3-((5-(4-(tert-butyl)benzamido)-2-carbamoylphenyl)amino)-N-(4-iodophenyl)piperidine-1-carboxamide], the inhibition at 10 µM was 94% and the pIC50 is 5.33.

As for `CC(C)(C)c1ccc(C(=O)Nc2ccc(C(=O)O)c(NC3CCCN(Cc4ccccc4)C3)c2)cc1` (stereo not shown) [Example E-2, 2-((1-benzylpiperidin-3-yl)amino)-4-(4-(tert-butyl)benzamido)benzoic acid], at 10 µM the inhibition was 71.1% and the pIC50 was 5.02.

In turn, `CC(C)(C)c1ccc(C(=O)Nc2ccc(C(N)=O)c(NC3CCCN(C(=O)Nc4ccccc4)C3)c2)cc1` (stereo not shown) [Example B-12, 3-((5-(4-(tert-butyl)benzamido)-2-carbamoylphenyl)amino)-N-phenylpiperidine-1-carboxamide] showed an inhibition at 10 µM of 96.2% and a pIC50 of 5.42.

`CCc1cccc(CC)c1NC(=O)N1CCCC(Nc2cc(NC(=O)c3ccc(C(C)(C)C)cc3)ccc2C(N)=O)C1` (stereo not shown) [Example B-18, 3-((5-(4-(tert-butyl)benzamido)-2-carbamoylphenyl)amino)-N-(2,6-diethylphenyl)piperidine-1-carboxamide] showed an inhibition at 10 µM of 93.7% and a pIC50 of 5.27.

`CC(C)(C)c1ccc(C(=O)Nc2ccc(C(N)=O)c(NC3CCCN(C(=O)Nc4ccc(C(F)(F)F)cc4)C3)c2)cc1` (stereo not shown) [Example B-36, 3-((5-(4-(tert-butyl)benzamido)-2-carbamoylphenyl)amino)-N-(4-(trifluoromethyl)phenyl)piperidine-1-carboxamide] had an inhibition at 10 µM of 97.2% and a pIC50 of 5.11.

For the compound `CCCCN1CCCC(Nc2cc(NC(=O)c3ccc(C(C)(C)C)cc3)ccc2C(=O)OC)C1` [Example D-4, methyl 4-(4-(tert-butyl)benzamido)-2-((1-butylpiperidin-3-yl)amino)benzoate], the inhibition at 10 µM turned out to be 97.8% and the negative logarithm of the IC50 (pIC50) is 5.66.

The compound `CCCCCCCCNC(=O)N1CCCC(Nc2cc(NC(=O)c3ccc(C(C)(C)C)cc3)ccc2C(N)=O)C1` (stereo not shown) [Example B-39, 3-((5-(4-(tert-butyl)benzamido)-2-carbamoylphenyl)amino)-N-octylpiperidine-1-carboxamide] had an inhibition at 10 µM of 100% and a pIC50 of 5.49.

Compound `CN1CCCC(Nc2cc(NC(=O)c3ccc(C(C)(C)C)cc3)ccc2C(N)=O)C1` [Example D-9, 4-(tert-butyl)-N-(4-carbamoyl-3-((1-methylpiperidin-3-yl)amino)phenyl)benzamide] showed an inhibition at 10 µM of 100% and a pIC50 of 5.37.

As to `CC(C)(C)c1ccc(C(=O)Nc2ccc(C(N)=O)c(NC3CCCN(S(=O)(=O)Cc4ccccc4)C3)c2)cc1` (stereo not shown) [Example A-15, N-(3-((1-(benzylsulfonyl)piperidin-3-yl)amino)-4-carbamoylphenyl)-4-(tert-butyl)benzamide], the inhibition at 10 µM stood at 95.9% and the negative-log IC50 (pIC50) is 5.39.

On to `CC(C)(C)c1ccc(C(=O)Nc2ccc(C(N)=O)c(NC3CCCN(C(=O)NC4CCCCC4)C3)c2)cc1` (stereo not shown) [Example B-9, 3-((5-(4-(tert-butyl)benzamido)-2-carbamoylphenyl)amino)-N-cyclohexylpiperidine-1-carboxamide], for which 10 µM produced 94.6% inhibition and the pIC50 is 5.62.

With `CCCCNC(=O)N1CCCC(Nc2cc(NC(=O)c3ccc(C(C)(C)C)cc3)ccc2C(=O)OC)C1` (stereo not shown) [Example B-4, methyl 4-(4-(tert-butyl)benzamido)-2-((1-(butylcarbamoyl)piperidin-3-yl)amino)benzoate], at 10 µM the inhibition was 84.6% and the pIC50 was 4.82.

In turn, `CC(C)S(=O)(=O)N1CCCC(Nc2cc(NC(=O)c3ccc(C(C)(C)C)cc3)ccc2C(N)=O)C1` (stereo not shown) [Example A-18, 4-(tert-butyl)-N-(4-carbamoyl-3-((1-(isopropylsulfonyl)piperidin-3-yl)amino)phenyl)benzamide] gave an inhibition at 10 µM of 90.3% and a negative-log IC50 (pIC50) of 5.02.

Turning to `CCN1CCCC(Nc2cc(NC(=O)c3ccc(C(C)(C)C)cc3)ccc2C(=O)OC)C1` [Example D-1, methyl 4-(4-(tert-butyl)benzamido)-2-((1-ethylpiperidin-3-yl)amino)benzoate], the inhibition at 10 µM turned out to be 100% and the pIC50 is 5.47.

Values taken from patent US20260184681A1, “PIPERIDINE DERIVATIVE, SALT OF SAME, AND PHARMACEUTICAL COMPOSITION CONTAINING SAME AS ACTIVE INGREDIENT” (PHARMCADD CO., LTD., priority 2022, published 2026).
